Laboratory results as given in ChEMBL document CHEMBL3885861, “Open TG-GATES”.

Species: Rattus norvegicus
Experiment: Open TG-GATES - Regimen: Daily Repeat
Format: toxicity, organism-based, Sprague-Dawley
Set-up: regimen Daily Repeat, gender Male, age 6 weeks
Conditions: in vivo, po, 3 mg/kg, route gavage, dose level Low; for APTT / Bas / Eos / Fbg / Hb / Ht / Lym / MCH / MCHC / MCV / Mono / Neu / PT / Plat / RBC / Ret / WBC: tissue Blood; for KIDNEY_L / KIDNEY_R / KIDNEY_TOTAL: tissue Kidney; for LIVER: tissue Liver; for A/G / ALP / ALT / AST / BUN / CRE / Ca / Cl / DBIL / GLC / IP / K / LDH / Na / PL / RALB / TBIL / TC / TG / TP / gamma-GTP: tissue Plasma

Structure (SMILES): Nc1c2c(nc3ccccc13)CCCC2 [TACRINE]
- TERMINAL_BW (72 h, time 3 day): 218.9 g
- APTT (72 h, time 3 day): 21 s
- Bas (72 h, time 3 day): 0%
- Eos (72 h, time 3 day): 0.8%
- Fbg (72 h, time 3 day): 309.2 mg/dL
- Hb (72 h, time 3 day): 13.8 g/dL
- Ht (72 h, time 3 day): 39.3%
- Lym (72 h, time 3 day): 80.2%
- MCH (72 h, time 3 day): 21 pg
- MCHC (72 h, time 3 day): 35%
- MCV (72 h, time 3 day): 60.1 fL
- Mono (72 h, time 3 day): 2.8%
- Neu (72 h, time 3 day): 15.2%
- PT (72 h, time 3 day): 16.1 s
- Plat (72 h, time 3 day): 115.7 x10_4/uL
- RBC (72 h, time 3 day): 655.6 x10_4/ul
- Ret (72 h, time 3 day): 5.8%
- WBC (72 h, time 3 day): 128.8 x10_2/uL
- KIDNEY_L (72 h, time 3 day): 0.9 g
- KIDNEY_R (72 h, time 3 day): 1 g
- KIDNEY_TOTAL (72 h, time 3 day): 1.9 g
- LIVER (72 h, time 3 day): 10 g
- A/G (72 h, time 3 day): 1.3
- ALP (72 h, time 3 day): 1457.8 IU/L
- ALT (72 h, time 3 day): 48.6 IU/L
- AST (72 h, time 3 day): 78.4 IU/L
- BUN (72 h, time 3 day): 17.8 mg/dL
- CRE (72 h, time 3 day): 0.2 mg/dL
- Ca (72 h, time 3 day): 10.8 mg/dL
- Cl (72 h, time 3 day): 106.8 meq/L
- DBIL (72 h, time 3 day): 0.004 mg/dL
- GLC (72 h, time 3 day): 190.2 mg/dL
- IP (72 h, time 3 day): 7.2 mg/dL
- K (72 h, time 3 day): 4.2 meq/L
- LDH (72 h, time 3 day): 313 IU/L
- Na (72 h, time 3 day): 142 meq/L
- PL (72 h, time 3 day): 168 mg/dL
- RALB (72 h, time 3 day): 3.2 g/dL
- TBIL (72 h, time 3 day): 0.016 mg/dL
- TC (72 h, time 3 day): 85.6 mg/dL
- TG (72 h, time 3 day): 111 mg/dL
- TP (72 h, time 3 day): 5.6 g/dL
- gamma-GTP (72 h, time 3 day): 1 IU/L
- TERMINAL_BW ([…], time 7 day): 247.7 g
- TERMINAL_BW ([…], time 14 day): 303.9 g
- TERMINAL_BW ([…], time 28 day): 351.6 g
- APTT ([…], time 7 day): 21.5 s
- Bas ([…], time 7 day): 0%
- Eos ([…], time 7 day): 1%
- Fbg ([…], time 7 day): 301 mg/dL
- Hb ([…], time 7 day): 13.7 g/dL
- Ht ([…], time 7 day): 38.9%
- Lym ([…], time 7 day): 81.6%
- MCH ([…], time 7 day): 21.3 pg
- MCHC ([…], time 7 day): 35.3%
- MCV ([…], time 7 day): 60.3 fL
- Mono ([…], time 7 day): 2.2%
- Neu ([…], time 7 day): 14.6%
- PT ([…], time 7 day): 16.1 s
- Plat ([…], time 7 day): 112.9 x10_4/uL
- RBC ([…], time 7 day): 645.2 x10_4/ul
- Ret ([…], time 7 day): 6%
- WBC ([…], time 7 day): 119.7 x10_2/uL
- APTT ([…], time 14 day): 23.3 s
- Bas ([…], time 14 day): 0%
- Eos ([…], time 14 day): 1%
- Fbg ([…], time 14 day): 309.4 mg/dL
- Hb ([…], time 14 day): 14.5 g/dL
- Ht ([…], time 14 day): 41.1%
- Lym ([…], time 14 day): 79.8%
- MCH ([…], time 14 day): 21.1 pg
- MCHC ([…], time 14 day): 35.4%
- MCV ([…], time 14 day): 59.5 fL
- Mono ([…], time 14 day): 1.4%
- Neu ([…], time 14 day): 17.4%
- PT ([…], time 14 day): 15.5 s
- Plat ([…], time 14 day): 132.9 x10_4/uL
- RBC ([…], time 14 day): 690.8 x10_4/ul
- Ret ([…], time 14 day): 4.6%
- WBC ([…], time 14 day): 104.3 x10_2/uL
- APTT ([…], time 28 day): 23.8 s
- Bas ([…], time 28 day): 0%
- Eos ([…], time 28 day): 1%
- Fbg ([…], time 28 day): 294.8 mg/dL
- Hb ([…], time 28 day): 15.6 g/dL
- Ht ([…], time 28 day): 42.8%
- Lym ([…], time 28 day): 84%
- MCH ([…], time 28 day): 20.1 pg
- MCHC ([…], time 28 day): 36.5%
- MCV ([…], time 28 day): 55.2 fL
- Mono ([…], time 28 day): 1.6%
- Neu ([…], time 28 day): 12.6%
- PT ([…], time 28 day): 16.3 s
- Plat ([…], time 28 day): 99.5 x10_4/uL
- RBC ([…], time 28 day): 776.2 x10_4/ul
- Ret ([…], time 28 day): 2.5%
- WBC ([…], time 28 day): 118.7 x10_2/uL
- KIDNEY_L ([…], time 7 day): 1 g
- KIDNEY_R ([…], time 7 day): 1.1 g
- KIDNEY_TOTAL ([…], time 7 day): 2.1 g
- KIDNEY_L ([…], time 14 day): 1.2 g
- KIDNEY_R ([…], time 14 day): 1.2 g
- KIDNEY_TOTAL ([…], time 14 day): 2.4 g
- KIDNEY_L ([…], time 28 day): 1.3 g
- KIDNEY_R ([…], time 28 day): 1.2 g
- KIDNEY_TOTAL ([…], time 28 day): 2.5 g
- LIVER ([…], time 7 day): 11 g
- LIVER ([…], time 14 day): 13.3 g
- LIVER ([…], time 28 day): 13.9 g
- A/G ([…], time 7 day): 1.2
- ALP ([…], time 7 day): 1691 IU/L
- ALT ([…], time 7 day): 37.2 IU/L
- AST ([…], time 7 day): 68.2 IU/L
- BUN ([…], time 7 day): 18.6 mg/dL
- CRE ([…], time 7 day): 0.2 mg/dL
- Ca ([…], time 7 day): 10.7 mg/dL
- Cl ([…], time 7 day): 108 meq/L
- DBIL ([…], time 7 day): 0 mg/dL
- GLC ([…], time 7 day): 187.8 mg/dL
- IP ([…], time 7 day): 7.4 mg/dL
- K ([…], time 7 day): 4.1 meq/L
- LDH ([…], time 7 day): 156.8 IU/L
- Na ([…], time 7 day): 142.6 meq/L
- PL ([…], time 7 day): 158 mg/dL
- RALB ([…], time 7 day): 3.1 g/dL
- TBIL ([…], time 7 day): 0.028 mg/dL
- TC ([…], time 7 day): 81.6 mg/dL
- TG ([…], time 7 day): 101.2 mg/dL
- TP ([…], time 7 day): 5.7 g/dL
- gamma-GTP ([…], time 7 day): 1.6 IU/L
- A/G ([…], time 14 day): 1.2
- ALP ([…], time 14 day): 1333.2 IU/L
- ALT ([…], time 14 day): 39.2 IU/L
- AST ([…], time 14 day): 65.2 IU/L
- BUN ([…], time 14 day): 18.2 mg/dL
- CRE ([…], time 14 day): 0.2 mg/dL
- Ca ([…], time 14 day): 10.8 mg/dL
- Cl ([…], time 14 day): 107.4 meq/L
- DBIL ([…], time 14 day): 0 mg/dL
- GLC ([…], time 14 day): 191.6 mg/dL
- IP ([…], time 14 day): 6.5 mg/dL
- K ([…], time 14 day): 4.2 meq/L
- LDH ([…], time 14 day): 164 IU/L
- Na ([…], time 14 day): 142 meq/L
- PL ([…], time 14 day): 153 mg/dL
- RALB ([…], time 14 day): 3.2 g/dL
- TBIL ([…], time 14 day): 0.018 mg/dL
- TC ([…], time 14 day): 75.6 mg/dL
- TG ([…], time 14 day): 121.4 mg/dL
- TP ([…], time 14 day): 5.9 g/dL
- gamma-GTP ([…], time 14 day): 1.8 IU/L
- A/G ([…], time 28 day): 1.1
- ALP ([…], time 28 day): 1169.6 IU/L
- ALT ([…], time 28 day): 38.2 IU/L
- AST ([…], time 28 day): 67.6 IU/L
- BUN ([…], time 28 day): 18.8 mg/dL
- CRE ([…], time 28 day): 0.2 mg/dL
- Ca ([…], time 28 day): 10.3 mg/dL
- Cl ([…], time 28 day): 107.6 meq/L
- DBIL ([…], time 28 day): 0 mg/dL
- GLC ([…], time 28 day): 190.6 mg/dL
- IP ([…], time 28 day): 5.9 mg/dL
- K ([…], time 28 day): 3.9 meq/L
- LDH ([…], time 28 day): 137 IU/L
- Na ([…], time 28 day): 142.6 meq/L
- PL ([…], time 28 day): 140 mg/dL
- RALB ([…], time 28 day): 3.2 g/dL
- TBIL ([…], time 28 day): 0.004 mg/dL
- TC ([…], time 28 day): 71.8 mg/dL
- TG ([…], time 28 day): 98.6 mg/dL
- TP ([…], time 28 day): 6 g/dL
- gamma-GTP ([…], time 28 day): 1 IU/L
